# Assay results published in patent US20230143612A1 (Arbutus Biopharma Corporation, priority 2020, published 2023).
# pIC50: −log10 of the molar value.
# Target: PD-L1 His protein / PD-1 Fc protein (Homo sapiens, UniProt Q9NZQ7)
# Assay: HTRF Assay (PD-1/PD-L1 interaction)
# Type: binding
# Conditions: PD-L1 His 6 nM, PD-1 Fc 6 nM
# Procedure, shortened: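 Compounds tested from 20 μM down to 0.001 μM (3-fold) against 6 nM PD-L1 His and 6 nM PD-1 Fc, 15 min room temperature incubation. Detection after 1 h at room temperature with Tb cryptate anti-6HIS and XL665 anti-human IgG reagents (mixture at 0.35 nM and 6.7 nM), HTRF signal.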
# Chain of PD-L1 His protein / PD-1 Fc protein (Q9NZQ7 19-238 limits assumed): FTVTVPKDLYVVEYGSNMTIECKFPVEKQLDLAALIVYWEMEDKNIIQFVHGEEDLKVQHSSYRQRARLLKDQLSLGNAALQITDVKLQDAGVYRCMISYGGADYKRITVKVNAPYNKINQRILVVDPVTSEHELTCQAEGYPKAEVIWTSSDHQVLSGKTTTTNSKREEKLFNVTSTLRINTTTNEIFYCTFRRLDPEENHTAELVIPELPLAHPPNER
row,SMILES,pIC50
1,"COc1nc(-c2cccc(-c3cccc(-c4cc5c(=O)n(C)c(CNC(C)C)nn5c4)c3Cl)c2Cl)ccc1CNC[C@@H]1CCC(=O)N1 [Example 477, 6-[2-Chloro-3-[2-chloro-3-[6-methoxy-5-[[[(2S)-5-oxopyrrolidin-2-yl]methylamino]methyl]-2-pyridyl]phenyl]phenyl]-2-[(isopropylamino)methyl]-3-methyl-pyrrolo[2,1-f][1,2,4]triazin-4-one]",7.77
2,"COc1nc(-c2cccc(-c3cccc(-c4cc5c(=O)n(C)c(CNCC(C)(C)O)nn5c4)c3Cl)c2Cl)cc(Cl)c1CNC[C@@H]1CCC(=O)N1 [Example 478, (S)-6-(2,2′-Dichloro-3′-(4-chloro-6-methoxy-5-((((5-oxopyrrolidin-2-yl)methyl)amino)methyl)pyridin-2-yl)-[1,1′-biphenyl]-3-yl)-2-(((2-hydroxy-2-methylpropyl)amino)methyl)-3-methylpyrrolo[2,1-f][1,2,4]triazin-4(3H)-one]",7.54
3,"COc1nc(-c2cccc(-c3cccc(-c4cnc5c(CNC[C@@H]6CCC(=O)N6)cnn5c4)c3Cl)c2Cl)ccc1CNC[C@@H]1CCC(=O)N1 [Example 310, (S)-5-((((6-(2,2′-Dichloro-3′-(3-(((((S)-5-oxopyrrolidin-2-yl)methyl)amino)methyl)pyrazolo[1,5-a]pyrimidin-6-yl)-[1,1′-biphenyl]-3-yl)-2-methoxypyridin-3-yl)methyl)amino)methyl)pyrrolidin-2-one]",9.70
4,"COc1nc(-c2cccc(-c3cccc(-c4ccn5c(=O)c(CNC[C@@H](O)CC(=O)O)cnc5c4)c3Cl)c2Cl)cc(F)c1CNC[C@@H]1CCC(=O)N1 [Example 270, (3S)-4-[[8-[2-Chloro-3-[2-chloro-3-[4-fluoro-6-methoxy-5-[[[(2S)-5-oxopyrrolidin-2-yl]methylamino]methyl]-2-pyridyl]phenyl]phenyl]-4-oxo-pyrido[1,2-a]pyrimidin-3-yl]methylamino]-3-hydroxy-butanoic acid]",10.00
5,"Cc1c(COc2cc(OCc3cncc(C(N)=O)c3)c(CNCCO)cc2Cl)cccc1-c1cccc(-c2ccn3c(=O)c(CNCCO)cnc3c2)c1 [Example 1, 5-((4-Chloro-2-(((2-hydroxyethyl)amino)methyl)-5-((3′-(3-(((2-hydroxyethyl)amino)methyl)-4-oxo-4H-pyrido[1,2-a]pyrimidin-8-yl)-2-methyl-[1,1′-biphenyl]-3-yl)methoxy)phenoxy)methyl)nicotinamide]",8.55
6,"Cc1c(COc2cc(OCc3cncc(C#N)c3)c(CNC[C@H]3CCC(=O)N3)cc2Cl)cccc1-c1cccc(-c2ccn3c(=O)c(CNC[C@H]4CCC(=O)N4)cnc3c2)c1C [Example 13, 5-((4-Chloro-5-((2,2′-dimethyl-3′-(4-oxo-3-(((((R)-5-oxopyrrolidin-2-yl)methyl)amino)methyl)-4H-pyrido[1,2-a]pyrimidin-8-yl)-[1,1′-biphenyl]-3-yl)methoxy)-2-(((((R)-5-oxopyrrolidin-2-yl)methyl)amino)methyl)phenoxy)methyl)nicotinonitrile]",9.10
7,"Cc1c(-c2ccn3c(=O)c(CNC[C@@H]4CCC(=O)N4)cnc3c2)cccc1-c1cccc(-c2ccc(CNC[C@@H]3CCC(=O)N3)cn2)c1Cl [Example 61, 8-(2′-Chloro-2-methyl-3′-(5-(((((S)-5-oxopyrrolidin-2-yl)methyl)amino)methyl)pyridin-2-yl)-[1,1′-biphenyl]-3-yl)-3-(((((S)-5-oxopyrrolidin-2-yl)methyl)amino)methyl)-4H-pyrido[1,2-a]pyrimidin-4-one]",7.80
8,"Cc1c(-c2ccn3c(=O)c(CNC[C@@H]4CCC(=O)N4)cnc3c2)cccc1-c1cccc(-c2ccc(CNC[C@@H]3CCC(=O)N3)c(N(C)C)n2)c1Cl [Example 64, 8-(2′-Chloro-3′-(6-(dimethylamino)-5-(((((S)-5-oxopyrrolidin-2-yl)methyl)amino)methyl)pyridin-2-yl)-2-methyl-[1,1′-biphenyl]-3-yl)-3-(((((S)-5-oxopyrrolidin-2-yl)methyl)amino)methyl)-4H-pyrido[1,2-a]pyrimidin-4-one]",7.43
9,"COc1nc(-c2cccc(-c3cc(F)cc(-c4ccn5c(=O)c(CNC[C@@H]6CCC(=O)N6)cnc5c4)c3Cl)c2Cl)ccc1CNC[C@@H]1CCC(=O)N1 [Example 140, 8-(2,2′-Dichloro-5-fluoro-3′-(6-methoxy-5-(((((S)-5-oxopyrrolidin-2-yl)methyl)amino)methyl)pyridin-2-yl)-[1,1′-biphenyl]-3-yl)-3-(((((S)-5-oxopyrrolidin-2-yl)methyl)amino)methyl)-4H-pyrido[1,2-a]pyrimidin-4-one]",8.70
10,"COc1nc(-c2cccc(-c3cccc(-c4ccc5c(c4)cc4n5CCNC4)c3Cl)c2Cl)ccc1CNC[C@@H]1CCC(=O)N1 [Example 365, (S)-5-((((6-(2,2′-Dichloro-3′-(1,2,3,4-tetrahydropyrazino[1,2-a]indol-8-yl)-[1,1′-biphenyl]-3-yl)-2-methoxypyridin-3-yl)methyl)amino)methyl)919yrrolidine-2-one]",7.89
11,"COc1nc(-c2cccc(-c3cccc(-c4ccn5c(=O)c(CNCCc6c[nH]cn6)cnc5c4)c3Cl)c2Cl)ccc1CNC[C@@H]1CCC(=O)N1 [Example 215, 8-[2-chloro-3-[2-chloro-3-[6-methoxy-5-[[[(2S)-5-oxopyrrolidin-2-yl]methylamino]methyl]-2-pyridyl]phenyl]phenyl]-3-[[2-(1H-imidazol-4-yl)ethylamino]methyl]pyrido[1,2-a]pyrimidin-4-one]",8.10
12,"COc1nc(-c2cccc(-c3cccc(-c4cc5c(=O)n(C)c(CN6CC(C(C)(C)O)C6)nn5c4)c3Cl)c2Cl)ccc1CNC[C@@H]1CCC(=O)N1 [Example 461, 6-[2-Chloro-3-[2-chloro-3-[6-methoxy-5-[[[(2S)-5-oxopyrrolidin-2-yl]methylamino]methyl]-2-pyridyl]phenyl]phenyl]-2-[[3-(1-hydroxy-1-methyl-ethyl)azetidin-1-yl]methyl]-3-methyl-pyrrolo[2,1-f][1,2,4]triazin-4-one]",7.89
13,"COc1nc(-c2cccc(-c3cccc(-c4ccc5c(n4)c(Cl)c(CNC[C@@H]4CCC(=O)N4)n5C)c3Cl)c2Cl)ccc1CNC[C@@H]1CCC(=O)N1 [Example 366, (S)-5-((((3-Chloro-5-(2,2′-dichloro-3′-(6-methoxy-5-(((((S)-5-oxopyrrolidin-2-yl)methyl)-amino)methyl)-pyridin-2-yl)-[1,1′-biphenyl]-3-yl)-1-methyl-1H-pyrrolo[3,2-b]pyridin-2-yl)methyl)amino)-methyl)-pyrrolidin-2-one]",8.82
14,"COc1nc(-c2cccc(-c3cccc(-c4cnc5c(c4)CNCC(=O)N5)c3Cl)c2Cl)ccc1CNC[C@@H]1CCC(=O)N1 [Example 403, (S)-7-(2,2′-Dichloro-3′-(6-methoxy-5-((((5-oxopyrrolidin-2-yl)methyl)amino)methyl)pyridin-2-yl)-[1,1′-biphenyl]-3-yl)-1,3,4,5-tetrahydro-2H-pyrido[2,3-e][1,4]diazepin-2-one]",10.00
15,COc1nc(-c2cccc(-c3cccc(-c4cc(C)n5c(=O)c(CN[C@H]6C[C@](C)(O)C6)cnc5c4)c3Cl)c2Cl)ccc1CNC[C@@H]1CCC(=O)N1 [Example 211],7.68
16,"CCNc1nc(-c2cccc(-c3cccc(-c4ccn5c(=O)c(CNC[C@@H]6CCC(=O)N6)cnc5c4)c3C)c2Cl)ccc1CNC[C@@H]1CCC(=O)N1 [Example 74, 8-(2′-Chloro-3′-(6-(ethylamino)-5-(((((S)-5-oxopyrrolidin-2-yl)methyl)amino)methyl)pyridin-2-yl)-2-methyl-[1,1′-biphenyl]-3-yl)-3-(((((S)-5-oxopyrrolidin-2-yl)methyl)amino)methyl)-4H-pyrido[1,2-a]pyrimidin-4-one]",7.82
17,"COc1nc(-c2cccc(-c3cccc(-c4ccn5c(=O)c(CNCC6CC(F)(F)C(=O)N6)cnc5c4)c3Cl)c2Cl)ccc1CNC[C@@H]1CCC(=O)N1 (mixture of isomers) [Example 253, 8-[2-Chloro-3-[2-chloro-3-[6-methoxy-5-[[[(2S)-5-oxopyrrolidin-2-yl]methylamino]methyl]-2-pyridyl]phenyl]phenyl]-3-[[(4,4-difluoro-5-oxo-pyrrolidin-2-yl)methylamino]methyl]pyrido[1,2-a]pyrimidin-4-one]",8.24
18,"NC1(Cc2ccc(-c3cccc(-c4cccc(-c5ccn6c(=O)c(CNC[C@@H]7CCC(=O)N7)cnc6c5)c4Cl)c3Cl)cc2)CC1 [Example 237, (S)-8-(4″-((1-Aminocyclopropyl)methyl)-2,2′-dichloro-[1,1′:3′,1″-terphenyl]-3-yl)-3-((((5-oxopyrrolidin-2-yl)methyl)amino)methyl)-4H-pyrido[1,2-a]pyrimidin-4-one]",6.05
19,"Cc1c(COc2cc(OCc3cncc(C#N)c3)c(CNCCO)cc2Cl)cccc1-c1cccc(-n2cnc3cc(CNCCO)ccc3c2=O)c1C [Example 6, 5-((4-Chloro-2-(((2-hydroxyethyl)amino)methyl)-5-((3′-(7-(((2-hydroxyethyl)amino)methyl)-4-oxoquinazolin-3(4H)-yl)-2,2′-dimethyl-[1,1′-biphenyl]-3-yl)methoxy)phenoxy)methyl)nicotinonitrile]",7.36
20,"COc1nc(-c2cccc(-c3cccc(-c4ccn5c(=O)c(CNC6CCN(C(C)=O)CC6)cnc5c4)c3Cl)c2Cl)ccc1CNC[C@@H]1CCC(=O)N1 [Example 256, 3-[[(1-Acetyl-4-piperidyl)amino]methyl]-8-[2-chloro-3-[2-chloro-3-[6-methoxy-5-[[[(2S)-5-oxopyrrolidin-2-yl]methylamino]methyl]-2-pyridyl]phenyl]phenyl]pyrido[1,2-a]pyrimidin-4-one]",10.00
21,COc1nc(-c2cccc(-c3cccc(-c4ccc5nc(CN[C@H]6C[C@H](O)C6)n(C)c5n4)c3Cl)c2Cl)ccc1CN[C@H]1C[C@H](O)C1 [Example 315],9.40
